The record followed here is US20240092831A1, “Proteasome Inhibitors” (Mayo Foundation for Medical Education and Research, priority 2019, published 2024).

Where two headings read alike, the source gives them in different places. Non-standard residues stand in square brackets, D forms with d. Residues, ends and D or L forms follow the SMILES beside them. ξ: configuration not given here. *: point of attachment. Hydrocinnamoyl = O=C(CCc1ccccc1)*; ξF = NC(Cc1ccccc1)C(=O)O; Cbz = O=C(OCc1ccccc1)* A value given as a limit tells only on which side of the number the result lay.

For one test, the system named is β5. Description: Proteasome β5 enzyme activity in WM cell lines (fluorogenic substrate). The settings on record: comparator. In kind it is cell-based. The procedure:
(§1) Methodology: BWCM.1, MWCL-1 and RPCI-WM1 and isogenic PI-resistant subclones were used in experiments. WM cell viability determined by 72 hour CellTiter Glo assay. Proteasome enzyme activity was estimated by fluorogenic substrates specific for β5 and β1. Protein expression was determined by western blotting. Apoptosis was assessed by annexin-V/PI staining.
Results: Chemical compounds capable of inhibiting enzymatic activity of both β5 and β1 were prepared. […] (FIGS. 2B, 2C). […] In vitro proteasome enzyme activity at the β5 and β1 subunits was examined in all WM cell lines +/−Compound 1 (with bortezomib serving as a comparator).

The test system of test [1] is bortezomib resistant cells. The experiment in a line: Cell viability (MTS/CellTiter Glo), bortezomib resistant multiple myeloma cells. In kind it is cell-based. The method, then:
(§2) Methods: CD138+ cells from multiple myeloma patients, bortezomib-sensitive multiple myeloma cell lines (OPM2, KMS11 and U266) and their isogenic bortezomib resistant subclones were used in experiments. Fluorogenic peptide substrates were used to measure β-subunit-specific enzymatic activity. Gene disruption was conducted using 2 different shRNA hairpins for PSMB5 (β5) and PSMB9 ([…]). […] HT12v4 gene expression array and NanoString mRNA quantification were used for gene expression profiling (GEP), followed by qPCR for confirmation. Novel dual β5-β1i proteasome inhibitors were synthesized and tested in vitro. Apoptosis was determined by annexin-V/[…] staining and MTS/CellTiter Glo assay used to determine cell viability.
On the technique in general: ATP-based viability assays read luminescence as a measure of living cells.

The test system of a further test is RPCI.WM1. The experiment in a line: MTS assay, RPCI.WM1. It is filed as cell-based.
For a further test, the system named is MWCL.1/BR. Description: MTS assay, MWCL.1/BR. In kind it is cell-based. The settings on record: bortezomib-resistant subclone. (In general: Formazan colour is commonly taken as a measure of viable cells.)
A further test deals with RPCI.WM1/BR. The experiment in a line: MTS assay, RPCI.WM1/BR. The settings on record: bortezomib-resistant subclone. In kind it is cell-based.
A further test concerns MWCL.1. Description: MTS assay, MWCL.1. In kind it is cell-based.
For a further test, the system named is BCWM.1/BR. The experiment in a line: MTS assay, BCWM.1/BR. It is filed as cell-based. The settings on record: BCWM1, bortezomib-resistant subclone.
The subject of test [2] is bortezomib sensitive cells. Description: Cell viability (MTS/CellTiter Glo), bortezomib sensitive multiple myeloma cells. In kind it is cell-based. The method, then: as §2
In a further test the target is T1, β1 (Homo sapiens, UniProt P28065).
T1 construct: In vitro proteasome enzyme activity at the β5 and β1 subunits was examined in all WM cell lines +/−Compound 1; endogenous in cells; host or cells: BWCM.1 (BCWM.1), MWCL-1, RPCI-WM1 and isogenic bortezomib/PI-resistant subclones
The experiment in a line: Proteasome β1 enzyme activity in WM cell lines (fluorogenic substrate). In kind it is cell-based. The settings on record: comparator. The method, then:
as §1

In a further test the test system is BCWM.1. Description: MTS assay, BCWM.1. It is filed as cell-based. The settings on record: BCWM1.
In a further test the target is T2, B1i (Homo sapiens, UniProt P28065).
T2 construct: endogenous in cells; host or cells: OPM2 and OPM2/BR multiple myeloma cell lines
Description: In vitro enzymatic potency of dual-β5/β1i inhibitors (Table 2). It is filed as biochemical. The procedure:
as §2
The results were shown for multiple myeloma cell lines (OPM2, OPM2/BR).

With `CC(C)C[C@H](NC(=O)[C@H](Cc1ccccc1)NC(=O)c1cnccn1)B(O)O` [Bortezomib, bortezomib], the “effect on β5 enzymatic function” value in the test with β5 is “only β5 enzymatic function”. The IC50 came out at 235 nM in test [1] (bortezomib resistant cells, before PSMB9 downregulation, read-out: IC50 (shift from)); 284 nM in [1] (bortezomib resistant cells, read-out: Bortezomib IC50); 108 nM in test [1] (bortezomib resistant-PSMB9 shRNA transfected cells, read-out: IC50 (shift to)); 3 nM with RPCI.WM1; 16.7 nM with MWCL.1/BR; 114 nM in the test with RPCI.WM1/BR. For the same compound, the IC50 in the test with MWCL.1 was 10.2 nM; with BCWM.1/BR, 17.6 nM; in [2], 4 nM; in the test on BCWM.1, 8.6 nM. Besides, the “effect on β1 activity” value on β1 is on record as “did not decrease β1 activity”.
As to `CC(C)[C@H](NC(=O)CCc1ccccc1)C(=O)NC(C=O)Cc1ccccc1` (stereo partly shown) [Compound 1-2] (Hydrocinnamoyl-Val-[ξF]-aldehyde), the IC50 against B1i (first column of Table 2) was 1000 nM; at B1i (second column of Table 2), 5000 nM.
Taken in the same sequence, the figures for `CC(C)C[C@H](NC(=O)OCc1ccccc1)C(=O)NC(C=O)Cc1ccccc1` (stereo partly drawn) [Compound 6-2] (Cbz-Leu-[ξF]-aldehyde) were 1000 nM and 5000 nM.
Taken in the same sequence, the figures for `O=CC(Cc1ccccc1)NC(=O)[C@H](Cc1ccccc1)NC(=O)OCc1ccccc1` (stereo partly drawn) [Compound 7-2] (Cbz-Phe-[ξF]-aldehyde) were 5000 nM and 5000 nM.
In the case of `CC(C)[C@H](NC(=O)c1ccncc1)C(=O)NC(C=O)Cc1ccccc1` (stereo partly shown) [Compound 12-2], the IC50 on B1i (first column of Table 2) and on B1i (second column of Table 2) was 5000 nM throughout.
Consider `CCOC(=O)/C(C#N)=C/C(Cc1ccccc1)NC(=O)[C@@H](NC(=O)OCc1ccccc1)C(C)C` (stereo partly shown) [Compound 15-2], for which the values for the IC50 against B1i (first column of Table 2) and at B1i (second column of Table 2) were more than 10000 nM and 5000 nM, respectively.
